In article PMC11111408, “Concurrent inhibition of oncogenic and wild-type RAS-GTP for cancer therapy” (Nature, 2024):

Test system: PRISM DNA-barcoded human tumour cell lines
Test: PRISM pooled cell viability assay;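 on Area under the curve (AUC): 8 threefold dilutions from 10 µM with 5 days of exposure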;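 on PRISM AUC: 8 threefold dilutions from 10 µM with 5 days of exposure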
Format: cell-based
Design: Area under the curve (AUC): scale not given here; AUC (PRISM viability) / AUC (PRISM): unit not given beside the values
Settings: for AUC (PRISM): BRAF class I; for PRISM AUC: KRAS MUT; for AUC (PRISM viability): WT
Description: Cells were then lysed in TCL mRNA lysis buffer, and then PCR with reverse transcription was performed. Detection of the barcodes and univariate and multivariate analysis was then performed as previously described. Data analysis is described in the Supplementary Methods. Up-to-date code for our analysis is at the github link: https://github.com/cmap/dockerized_mts.
For every gene with non-silent mutations in at least four cell-lines, we compared the AUC values between cells with and without those mutations using a t-test. This analysis was carried out for: (i) the full dataset; (ii) excluding cell lines with non-silent KRAS mutations; and (iii) excluding cell lines that have either KRAS or NRAS non-silent mutations.

[1] = DND41_HAEMATOPOIETIC_AND_LYMPHOID_TISSUE

## CCn1c(-c2cc(N3CCN(C4CC4)CC3)cnc2[C@H](C)OC)c2c3cc(ccc31)-c1csc(n1)C[C@H](NC(=O)[C@H]1[C@@H]3COC[C@@H]31)C(=O)N1CCC[C@H](N1)C(=O)OCC(C)(C)C2 [RMC-7977]
42MGBA_CENTRAL_NERVOUS_SYSTEM
  Area under the curve (AUC): 0.8215
253JBV_URINARY_TRACT
  Area under the curve (AUC): 0.7547
639V_URINARY_TRACT
  Area under the curve (AUC): 0.5786
647V_URINARY_TRACT
  Area under the curve (AUC): 0.793
697_HAEMATOPOIETIC_AND_LYMPHOID_TISSUE
  Area under the curve (AUC): 0.7402
769P_KIDNEY
  Area under the curve (AUC): 0.9025
786O_KIDNEY
  Area under the curve (AUC): 0.9593
5637_URINARY_TRACT
  Area under the curve (AUC): 0.5198
8305C_THYROID
  Area under the curve (AUC): 0.8425
A101D_SKIN
  AUC (PRISM): 0.8318
A375_SKIN
  AUC (PRISM): 0.8721
A549_LUNG
  PRISM AUC: 0.4422
A1207_CENTRAL_NERVOUS_SYSTEM
  AUC (PRISM): 0.9848
A2058_SKIN
  AUC (PRISM): 0.6601
AGS_STOMACH
  PRISM AUC: 0.2114
ASPC1_PANCREAS
  PRISM AUC: 0.2372
CAL62_THYROID
  PRISM AUC: 0.7922
CALU1_LUNG
  PRISM AUC: 0.3345
CAOV3_OVARY
  Area under the curve (AUC): 0.8029
CAPAN2_PANCREAS
  Area under the curve (AUC): 0.3724
  PRISM AUC: 0.2599
CAS1_CENTRAL_NERVOUS_SYSTEM
  Area under the curve (AUC): 0.8726
CASKI_CERVIX
  Area under the curve (AUC): 0.7017
CBAGPN_BONE
  Area under the curve (AUC): 0.5843
CCFSTTG1_CENTRAL_NERVOUS_SYSTEM
  Area under the curve (AUC): 0.8445
CCK81_LARGE_INTESTINE
  Area under the curve (AUC): 0.8268
CCLP1_BILIARY_TRACT
  Area under the curve (AUC): 0.6816
CCSW1_BILIARY_TRACT
  Area under the curve (AUC): 0.6555
CFPAC1_PANCREAS
  Area under the curve (AUC): 0.5351
  PRISM AUC: 0.2506
CH157MN_CENTRAL_NERVOUS_SYSTEM
  Area under the curve (AUC): 0.6397
CHAGOK1_LUNG
  Area under the curve (AUC): 0.489
CHL1_SKIN
  Area under the curve (AUC): 0.6244
CHLA06ATRT_SOFT_TISSUE
  Area under the curve (AUC): 0.5593
CHLA10_BONE
  Area under the curve (AUC): 0.7982
CHLA15_AUTONOMIC_GANGLIA
  Area under the curve (AUC): 0.6039
CHLA57_BONE
  Area under the curve (AUC): 0.7007
CHLA200_CENTRAL_NERVOUS_SYSTEM
  Area under the curve (AUC): 0.6544
CJM_SKIN
  Area under the curve (AUC): 0.5835
CL11_LARGE_INTESTINE
  Area under the curve (AUC): 0.4982
CMLT1_HAEMATOPOIETIC_AND_LYMPHOID_TISSUE
  Area under the curve (AUC): 0.6333
COGAR359_SOFT_TISSUE
  Area under the curve (AUC): 0.7818
COGE352_BONE
  Area under the curve (AUC): 0.9516
COGN278_AUTONOMIC_GANGLIA
  Area under the curve (AUC): 0.4846
COLO320_LARGE_INTESTINE
  Area under the curve (AUC): 0.6681
COLO668_LUNG
  Area under the curve (AUC): 0.6484
  PRISM AUC: 0.815
COLO678_LARGE_INTESTINE
  Area under the curve (AUC): 0.7153
COLO679_SKIN
  Area under the curve (AUC): 0.858
COLO680N_OESOPHAGUS
  Area under the curve (AUC): 0.6858
COLO741_SKIN
  Area under the curve (AUC): 1
COLO783_SKIN
  Area under the curve (AUC): 0.8893
COLO792_SKIN
  Area under the curve (AUC): 0.7007
COLO800_SKIN
  Area under the curve (AUC): 0.7125
CORL23_LUNG
  Area under the curve (AUC): 0.5921
  PRISM AUC: 0.1909
CORL88_LUNG
  Area under the curve (AUC): 0.5624
CORL105_LUNG
  Area under the curve (AUC): 0.7085
CORL279_LUNG
  Area under the curve (AUC): 0.7248
COV318_OVARY
  Area under the curve (AUC): 0.8633
COV362_OVARY
  Area under the curve (AUC): 0.7849
COV434_OVARY
  Area under the curve (AUC): 0.99
COV644_OVARY
  Area under the curve (AUC): 0.7771
CW2_LARGE_INTESTINE
  Area under the curve (AUC): 0.99
CW9019_SOFT_TISSUE
  Area under the curve (AUC): 0.6651
DANG_PANCREAS
  Area under the curve (AUC): 0.3955
  PRISM AUC: 0.2087
DAOY_CENTRAL_NERVOUS_SYSTEM
  Area under the curve (AUC): 0.7146
DBTRG05MG_CENTRAL_NERVOUS_SYSTEM
  Area under the curve (AUC): 0.9233
DEL_HAEMATOPOIETIC_AND_LYMPHOID_TISSUE
  Area under the curve (AUC): 0.7782
DETROIT562_UPPER_AERODIGESTIVE_TRACT
  Area under the curve (AUC): 0.4955
DKMG_CENTRAL_NERVOUS_SYSTEM
  Area under the curve (AUC): 0.9357
DL_SOFT_TISSUE
  Area under the curve (AUC): 0.5482
DMS53_LUNG
  Area under the curve (AUC): 0.9195
DMS79_LUNG
  Area under the curve (AUC): 0.9708
DMS273_LUNG
  Area under the curve (AUC): 0.8299
[1]
  Area under the curve (AUC): 0.662
  PRISM AUC: 0.4904
DOHH2_HAEMATOPOIETIC_AND_LYMPHOID_TISSUE
  Area under the curve (AUC): 0.794
DOTC24510_CERVIX
  Area under the curve (AUC): 0.5479
DU145_PROSTATE
  Area under the curve (AUC): 0.7717
DU4475_BREAST
  Area under the curve (AUC): 0.7278
DV90_LUNG
  Area under the curve (AUC): 0.3742
  PRISM AUC: 0.1773
EB1_HAEMATOPOIETIC_AND_LYMPHOID_TISSUE
  Area under the curve (AUC): 0.7516
EBC1_LUNG
  Area under the curve (AUC): 0.4773
ECC2_BILIARY_TRACT
  Area under the curve (AUC): 0.751
ECC10_STOMACH
  Area under the curve (AUC): 0.6145
ECGI10_OESOPHAGUS
  Area under the curve (AUC): 0.5375
EFE184_ENDOMETRIUM
  Area under the curve (AUC): 0.7163
EFM19_BREAST
  Area under the curve (AUC): 0.9395
EFM192A_BREAST
  Area under the curve (AUC): 1
EFO21_OVARY
  Area under the curve (AUC): 0.6416
EFO27_OVARY
  Area under the curve (AUC): 0.6995
EGI1_BILIARY_TRACT
  Area under the curve (AUC): 0.5258
EKVX_LUNG
  Area under the curve (AUC): 0.7007
EM2_HAEMATOPOIETIC_AND_LYMPHOID_TISSUE
  Area under the curve (AUC): 0.5861
EMTOKA_ENDOMETRIUM
  Area under the curve (AUC): 0.6769
EN_ENDOMETRIUM
  Area under the curve (AUC): 0.882
ES2_OVARY
  Area under the curve (AUC): 0.9145
ESS1_ENDOMETRIUM
  Area under the curve (AUC): 0.5647
EW8_BONE
  Area under the curve (AUC): 0.6981
EWS502_BONE
  Area under the curve (AUC): 0.6483
FADU_UPPER_AERODIGESTIVE_TRACT
  Area under the curve (AUC): 0.6687
FLO1_OESOPHAGUS
  Area under the curve (AUC): 1
FTC133_THYROID
  Area under the curve (AUC): 0.5671
FTC238_THYROID
  Area under the curve (AUC): 0.9611
G292CLONEA141B1
  Area under the curve (AUC): 0.925
G292CLONEA141B1_BONE
  Area under the curve (AUC): 0.8311
G361_SKIN
  Area under the curve (AUC): 1
G401_SOFT_TISSUE
  Area under the curve (AUC): 0.9104
G402_SOFT_TISSUE
  Area under the curve (AUC): 0.9029
G415_BILIARY_TRACT
  Area under the curve (AUC): 0.596
GAMG_CENTRAL_NERVOUS_SYSTEM
  Area under the curve (AUC): 0.6539
GB1_CENTRAL_NERVOUS_SYSTEM
  Area under the curve (AUC): 1
GB2_BILIARY_TRACT
  Area under the curve (AUC): 0.5045
GP2D_LARGE_INTESTINE
  PRISM AUC: 0.4036
GSU_STOMACH
  PRISM AUC: 0.1903
HCC44_LUNG
  PRISM AUC: 0.3549
HCC56_LARGE_INTESTINE
  PRISM AUC: 0.1735
HCT15_LARGE_INTESTINE
  PRISM AUC: 0.6069
HCT116_LARGE_INTESTINE
  PRISM AUC: 0.4206
HEC1A_ENDOMETRIUM
  PRISM AUC: 0.5452
HEC1B_ENDOMETRIUM
  PRISM AUC: 0.557
HEYA8_OVARY
  PRISM AUC: 0.3651
HMC18_BREAST
  PRISM AUC: 0.1236
HPAC_PANCREAS
  PRISM AUC: 0.2345
HPAFII_PANCREAS
  PRISM AUC: 0.1832
HT29_LARGE_INTESTINE
  AUC (PRISM viability): 0.9401
HT55_LARGE_INTESTINE
  AUC (PRISM viability): 0.5483
HT144_SKIN
  AUC (PRISM viability): 0.8437
HT_HAEMATOPOIETIC_AND_LYMPHOID_TISSUE
  AUC (PRISM viability): 0.5864
HUCCT1_BILIARY_TRACT
  PRISM AUC: 0.2016
